Source: patent publication US6855512B2, “Methods for identifying inhibitors of cytochrome P450RAI” (Allergan, Inc., priority 2000, dated 2005)

Biological target: T1, P450RAI-1 (Homo sapiens, UniProt O43174)
T1 construct: expressed in transfected cells; host or cells: HeLa (stably transfected, hygromycin selection)
T1 sequence (O43174 1-497): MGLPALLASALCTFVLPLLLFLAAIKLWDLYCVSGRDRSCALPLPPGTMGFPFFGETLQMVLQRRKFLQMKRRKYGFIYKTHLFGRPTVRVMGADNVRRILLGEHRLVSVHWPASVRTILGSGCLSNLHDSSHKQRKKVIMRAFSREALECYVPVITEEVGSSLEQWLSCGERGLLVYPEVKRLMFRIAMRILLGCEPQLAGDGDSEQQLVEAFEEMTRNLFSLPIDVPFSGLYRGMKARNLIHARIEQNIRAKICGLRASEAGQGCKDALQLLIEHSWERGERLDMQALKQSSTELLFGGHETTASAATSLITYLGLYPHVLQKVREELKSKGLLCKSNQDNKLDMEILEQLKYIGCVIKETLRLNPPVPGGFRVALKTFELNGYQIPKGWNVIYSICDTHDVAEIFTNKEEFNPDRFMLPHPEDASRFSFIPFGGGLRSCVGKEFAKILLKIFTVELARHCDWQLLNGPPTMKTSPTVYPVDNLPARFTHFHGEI
Experiment: P450RAI-1 cell-based inhibitor assay (intact HeLa)
Conditions: read-out: P450RAI INHIBITION DATA INTACT HELA IC50
Experimental: P450RAI-1 Cell-Based Inhibitor Assay:
P450RAI-1 stably transfected HeLa cells are maintained in […] tissue culture dishes in Modified Eagle's Medium (MEM) containing 10% Fetal Bovine Serum (FBS) and 100 μg/ml hygromycin. Exponentially growing cells are harvested by incubating in trypsin. Cells are then washed with 1× Phosphate Buffered Saline (PBS) and plated in a 48-well plate at 5×10^5 cells in 0.2 ml MEM medium containing 10% FBS and 0.05 μCi [^3H]-RA in the presence or absence of increasing concentrations of the test compounds. The compounds are diluted in 100% DMSO and then added in triplicate wells at either 10, 1 or 0.1 μM final concentration. As a positive control for RA metabolism inhibition, cells are also incubated with ketoconazole at 100, 10 and 1 μM. Cell are incubated for 3 hours at 37° C. […] The water soluble radioactivity is quantified using β-scintillation counter. IC50 values represent the concentration of inhibitor required to inhibit all-trans-RA metabolism by 50 percent and are derived manually from log-transformed data.

| SMILES | IC50 [µM] |
| --- | --- |
| CC1(C)CCSc2ccc(C#Cc3ccc(CC(=O)O)cc3)cc21 [Compound 202] | 0.6 |
| CC1(C)CC(C)(C)c2cc(C(=O)Nc3ccc(C(=O)O)c(F)c3)cc(Cl)c2O1 [Compound 203] | 0.62 |
| CC1(C)CC(C)(C)c2cc(C(=O)Nc3ccc(C(=O)O)c(F)c3)cc(C3CC3)c2O1 [Compound 204] | 0.7 |
| CC1(C)CC(C)(C)c2cc(C(=O)Nc3ccc(C(=O)O)c(F)c3)cc(C(F)(F)F)c2O1 [Compound 205] | 1 |
| CCC1(CC)CC(C)(C)c2cc(C(=O)Nc3ccc(C(=O)O)c(F)c3)cc(Br)c2O1 [Compound 206] | 1.8 |
| CC1(C)CCCc2ccc(C#Cc3ccc(C(=O)O)cc3)cc21 [Compound 208] | 1 |
| CC(C)(C)c1cc(C#Cc2ccc(C(=O)O)cc2)cc(Cl)c1O [Compound 209] | 1.7 |
| CC1=C(/C=C/C#Cc2ccc(C(=O)O)cc2)C(C)(C)CCC1(C)C [Compound 212] | 7 |
| COc1ccc(C#Cc2ccc(C(=O)O)cc2)cc1C12CC3CC(CC(C3)C1)C2 [Compound 214] | 1.9 |
| CC1(C)CCSc2ccc(C#Cc3ccc(C(=O)O)cc3)cc21 [Compound 215] | 6.2 |
| CC1(C)CCC(C)(C)c2cc(C#Cc3ccc(C(=O)O)cc3)ccc21 [Compound 216] | 3.3 |
| CC1=C(/C=C/C#Cc2ccc(C(=O)O)cc2)C(C)(C)CCC1 [Compound 217] | 6.3 |
| CC1(C)CCCc2cc(C#Cc3ccc(C(=O)O)cc3)ccc21 [Compound 218] | 3.4 |
| CC1=C(/C=C/C#Cc2ccc(C(=O)O)cc2)C(C)(C)CCS1 [Compound 219] | 3.2 |
| Cc1cc(C(=O)Nc2ccc(C(=O)O)c(F)c2)cc2c1OC(C)(C)CC2(C)C [Compound 220] | 1 |
| CC1(C)CC(C)(C)c2cc(C(=O)Nc3ccc(C(=O)O)c(F)n3)cc(Cl)c2O1 [Compound 221] | > 10 |
| CCOc1c(I)cc(C(=O)Nc2ccc(C(=O)O)c(F)c2)cc1C(C)(C)C [Compound 222] | > 10 |
| CCOc1c(Br)cc(C(=O)Nc2ccc(C(=O)O)c(F)c2)cc1C(C)(C)C [Compound 223] | > 10 |
| CC1(C)CC(C)(C)c2cc(C(=O)Nc3ccc(C(=O)O)c(F)c3)cc(-c3ccccc3)c2O1 [Compound 224] | 5.5 |
| CC1(C)CCOc2c(Br)cc(C(=O)Nc3ccc(C(=O)O)c(F)c3)cc21 [Compound 225] | > 10 |

| SMILES | IC50 [µM] |
| --- | --- |
| COc1cc(C(=O)Nc2ccc(C(=O)O)c(F)c2)cc2c1OC(C)(C)CC2(C)C [Compound 226] | > 10 |
| Cc1cc(C(=O)Nc2ccc(C(=O)O)cc2)cc2c1OC(C)(C)CC2(C)C [Compound 227] | 1.3 |
| CC1(C)CC(C)(C)c2cc(C(=O)Nc3ccc(C(=O)O)c(F)c3)ccc2O1 [Compound 228] | 6 |
| CC1=C(/C=C/C#Cc2ccc(C(=O)O)c(F)c2)C(C)(C)CCC1 [Compound 229] | 1.6 |
| CC1(C)CCC(C)(C)c2cc(C#Cc3ccc(C(=O)O)c(F)c3)ccc21 [Compound 230] | 5.1 |
| CC1(C)CC(C)(C)c2cc(C(=O)Oc3ccc(C(=O)O)cc3)ccc2O1 [Compound 231] | 4.1 |
| CC1(C)CCC(O)c2ccc(C#Cc3ccc(C(=O)O)cc3)cc21 (stereo not drawn) [Compound 232] | 4.2 |
| O=C(O)c1ccc2cc(-c3ccc(O)c(C45CC6CC(CC(C6)C4)C5)c3)ccc2c1 [Compound 233] | 1.3 |
| COc1ccc(-c2ccc3cc(C(=O)O)ccc3c2)cc1C12CC3CC(CC(C3)C1)C2 [Compound 234] | 4.7 |
| CC(C)(C)c1cc(C#Cc2ccc(C(=O)O)cc2)cc(C(C)(C)C)c1O [Compound 235] | 7 |
| CC1(C)CCC(C)(C)c2cc(C(=O)Nc3ccc(C(=O)O)c(F)c3)ccc21 [Compound 237] | 6.8 |
| CC1(C)CCSc2ccc(C#Cc3ccc(C(=O)O)cn3)cc21 [Compound 238] | 7.2 |
| CC1(C)CCSc2ccc(C#Cc3ccc(C(=O)O)s3)cc21 [Compound 240] | 3 |
| CC1(C)CCC(C)(C)c2cc(-c3ccc4cc(C(=O)O)ccc4c3)ccc21 [Compound 241] | 5.5 |
| CC1(C)CCC(C)(C)c2cc(C(=O)/C=C/c3ccc(C(=O)O)cc3)ccc21 [Compound 242] | 5.8 |
| CC1(C)CCC(C)(C)c2cc(C(=O)Oc3ccc(C(=O)O)cc3)ccc21 [Compound 243] | 7.4 |
| CC1=C(/C=C/C#Cc2ccc(C(=O)O)cn2)C(C)(C)CCC1 [Compound 244] | 5.1 |
| CC1=C(/C=C/C#Cc2ccc(C(=O)O)s2)C(C)(C)CCC1 [Compound 245] | 3.3 |
| CC1(C)CCC(C)(C)c2c1cc(O)c(C(=O)Nc1ccc(C(=O)O)cc1)c2F [Compound 246] | 3.1 |
